Patent publication US20240166641A1, “HETEROCYCLES AND USES THEREOF” (Kumquat Biosciences Inc., priority 2021, published 2024)

Tests used:
OT-1 cells = assay: T-cell activation: intracellular production of IFNγ and TNFα in exhausted OT-1 cells; assay type: cell-based; conditions: 10 uM compound, OT-1 cells restimulated with 1 μM OVA, read-out: % TNFa + /IFNg + production in compound-treated cells (uM compound) relative to negative control (DMSO)
Method: 1*10^6 OT-1 cells are seeded in a 24well in a volume of 1 mL of RPMI/10% FCS, and activated with 10 nM OVA protein for 48 h. Cells are then split 1:4 into 96well plates after two washes in warm media. To induce exhaustion, cells are then expanded for 3 days in the presence of vehicle control or a compound described herein (e.g., PTPN2 inhibitor) various concentrations, as well as 5 ng/ml IL-7 and 5 ng/ml IL-15, with the addition of fresh OVA on each day. After this point, cells are treated with Brefeldin A and restimulated with 1 μM of OVA for 4-6h, and cells are stained to assess production of IFNγ and TNFα intracellularly by flow cytometry. The results are shown as increase in percentage production of IFNγ and TNFα in cells treated with an exemplified compound at 10 uM, relative to a negative control (DMSO) of cells without being treated with the compound but merely DMSO (a solvent in which exemplified compounds are dissolved). See Table 10 below summarizes percentage increase in IFNγ and TNFα intracellular production in cells treated with an exemplified compound (at 10 uM) or without it, relative to a negative control (DMSO).

PTPN2 = molecular target: T1, PTPN2 (Homo sapiens, UniProt P17706); assay: Phosphatase activity assay (Bio-Biochem-DiFMUP), PTPN2; assay type: biochemical; conditions: DiFMUP substrate, room temperature
T1 sequence (P17706 1-415): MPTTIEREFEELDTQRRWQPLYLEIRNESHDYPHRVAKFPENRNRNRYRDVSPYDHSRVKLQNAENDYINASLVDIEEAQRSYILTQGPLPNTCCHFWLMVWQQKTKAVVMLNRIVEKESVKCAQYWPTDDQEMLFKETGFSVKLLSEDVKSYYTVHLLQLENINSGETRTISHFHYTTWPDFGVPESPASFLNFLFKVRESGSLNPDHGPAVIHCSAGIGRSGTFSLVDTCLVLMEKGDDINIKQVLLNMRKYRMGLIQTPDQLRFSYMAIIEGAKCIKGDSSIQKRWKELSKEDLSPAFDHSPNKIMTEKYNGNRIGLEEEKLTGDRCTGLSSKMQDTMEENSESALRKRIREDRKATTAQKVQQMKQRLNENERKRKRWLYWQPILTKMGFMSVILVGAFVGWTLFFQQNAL
Excerpt: (§1) The selectivity and potency of a small molecule PTPN2 inhibitor as provided herein (e.g., a derivative of Formula I, II, III, IV; or sub-formulae thereof) against one or more protein tyrosine phosphatase (PTP) enzymes, and specifically against PTPN2, can be assessed in various ways. The one or more PTP enzymes comprise Mycobacterium protein tyrosine phosphatase A (mPTPA), Mycobacterium protein tyrosine phosphatase B (mPTPB), PTPN1 (i.e., PTP1B), PTPN2 (i.e., TC-PTP), SHP-1, SHP-2, FAP-1, Meg2, HePTP, Laforin, VHX, VHR, LMWPTP, Cdcl4A, LAR, CD45, PTPRG, a fragment thereof, a variant thereof, and a combination thereof. Selectivity and potency of a small molecule PTPN2 inhibitor is evaluated using a PTP activity inhibition assay. The assay is performed using a buffer comprising 50 millimolar (mM) Bis-Tris (pH=6.3), 2 mM EDTA, and 5 mM N,N′-dimethyl-N,N′-bis(mercaptoacetyl)hydrazine (DMH). The assay is performed using a phosphated substrate, e.g., 10 mM fluorescein diphosphate (FDP) that is stored at −20° C. Alternatively or in addition to, the assay is performed using 10 mM DiFMUP as a phosphated substrate. Each PTP enzyme is diluted in an enzyme dilution buffer comprising 50 mM Bis-Tris (pH=6.3), 2 mM EDTA, 5 mM DMH, 20% (vol./vol.) glycerol, and 0.01% (vol./vol.) Triton X-100.
(§2) The assay is carried out at room temperature in 96 well plates. A reaction mixture of 170 microliter (μL) of the assay buffer comprising 10 μM FDP or DiFMIUP is added to each well. A 10 μL volume of (i) a compound disclosed herein (e.g., PTPN2 inhibitor) dissolved in DMSO at one of 10 concentrations from a serial dilution or (ii) DMSO alone for control is added to each well. The reaction is initiated by adding 20 μL of a PTP enzyme (e.g., PTPN2) that is diluted in the enzyme dilution buffer. The phosphatase activity of the PTP enzyme is assessed by monitoring appearance of a fluorescent product (e.g., fluorescein monophosphate (FMP) from FDP, or 6,8-difluoro-7-hydroxyl-4-coumarin (DiFMU) from DiFMUP) continuously for about 15 to 30 minutes, using the SpectraMax® Gemini™ XPS Microplate Spectrofluorometer (Molecular Devices®) with excitation of 440 nm and emission at 530 nm (cutoff filter at 525 nm) for FMP and excitation at 360 nm and emission at 450 nm (cutoff filter at 435 nm) for DiFMU. The rate (e.g., the initial rate) of FMP or DiFMU formation is plotted against the concentration of the small molecule PTPN2 inhibitor, and the data is fitted (e.g., using a 4-parameter equation) to determine the inflection point of the fit as the IC50 of the small molecule PTPN2 inhibitor for a specific enzyme. Table 6 summarizes the IC50 values of compounds disclosed herein against PTPN2 and PTPN1.

[1] = tested on: B16F10 mouse melanoma cells; assay: MHC expression associated with IFNγ signaling, flow cytometry; assay type: cell-based; conditions: B16-F10, 3 uM compound, 48 hours, normalized to DMSO/with IFNγ control, read-out: % MHC in cells treated with Compound at 3 uM relative to negative control (DMSO)
Method: B16F10 mouse melanoma cells (ATCC Cat #CRL-6475, Manassas, VA) are seeded at approximately a density of 500 cells per well in a 384-well clear bottom plate (Corning Cat #3765, Corning, 5 NY) in 25 μL total volume of DMEM+10% FBS (Sigma Cat #D6429 and Sigma Cat #F4135, St. Louis, MO). Cells are allowed to adhere overnight at 37° C.+5% CO2. On the following day, 12.5 μL of mouse IFNγ (RD systems Cat #485-MI/CF, Minneapolis, MN) is added to half of the plate (columns 13-24) at a concentration of 2 ng/mL for a final assay concentration of 0.5 ng/mL of IFNγ. Media only (12.5 μL of DMEM+10% FBS) is added to the remainder of the 10 plate (columns 1-12). Next, compounds resuspended in DMSO (Sigma Cat #D2650) at 100 mM are diluted in semi-log dilutions in DMSO ranging from 100 mM to 0.001 mM and DMSO only controls are included. The compound/DMSO dilutions are further diluted 1:250 in DMEM+10% FBS, and 12.5 μL of these dilutions are added in triplicates to cells of both treatment arms (with and without IFNγ). Compounds are only dosed in the inner 240 wells, avoiding the outer 2-well perimeter of the plate to minimize edge effects. Finally, the plate is loaded into an IncuCyte® S3 Live Cell Analysis System (Essen Bioscience-Sartorius, Ann Arbor, MI) maintained in a 37° C.+5% CO2 incubator, allowed to equilibrate for 2 hours, and treated for 48 hours. MHC levels are measured by flow cytometry using a FITC anti-mouse H-2kb antibody (clone AF6-88.5), and levels are normalized based on DMSO/with IFNγ control. Table 7 below summarizes the percentage in MHC expression in cells treated with or without compounds disclosed herein at a specified concentration.

PTP1B = molecular target: T2, PTP1B (Homo sapiens, UniProt P18031); assay: Phosphatase activity assay (Bio-Biochem-DiFMUP), PTP1B; assay type: biochemical; conditions: DiFMUP substrate, room temperature
T2 sequence (P18031 1-435): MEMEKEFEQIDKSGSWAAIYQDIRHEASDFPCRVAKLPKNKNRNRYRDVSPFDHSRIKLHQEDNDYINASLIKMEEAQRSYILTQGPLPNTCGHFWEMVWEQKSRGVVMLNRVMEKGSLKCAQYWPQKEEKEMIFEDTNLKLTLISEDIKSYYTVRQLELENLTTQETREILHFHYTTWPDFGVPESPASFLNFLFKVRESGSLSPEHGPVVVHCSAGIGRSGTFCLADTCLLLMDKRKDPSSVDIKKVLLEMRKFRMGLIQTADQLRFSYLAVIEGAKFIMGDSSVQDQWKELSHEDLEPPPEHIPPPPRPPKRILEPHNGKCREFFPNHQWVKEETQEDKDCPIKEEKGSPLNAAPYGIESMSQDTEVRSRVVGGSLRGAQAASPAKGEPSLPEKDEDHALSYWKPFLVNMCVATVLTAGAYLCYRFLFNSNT
Excerpt: as §1, §2

mouse C57BL/6 T cells = assay: pSTAT1 signaling in IFNα-stimulated T cells, flow cytometry; assay type: cell-based; conditions: T-cell, 10 uM compound, T cells stimulated for 5 hours by IFNα, read-out: % pSTAT1 in cells treated with subject compounds relative to negative control (DMSO)
Method: IFNα signaling in mouse C57BL/6 T cells promotes activation of multiple signaling pathways associated with antitumor responses. A key target of this signaling is phosphorylation of the transcription factor STAT1. […] T cells are stimulated for 5 hours by IFNα in the presence or absence of exemplified compounds disclosed herein (e.g., PTPN2 inhibitors) and stained intracellularly with antibodies for phosphorylated STAT1 and then analyzed by flow cytometry. Enhancement of phosphorylation of STAT1 is read out as a percentage over the DMSO control.

IC50 (PTPN2) [nM]	IC50 (PTP1B) [nM]	SMILES	activity at 10 µM (OT-1 cells) [%]	activation at 3 µM [1] [%]	activity at 10 µM (mouse C57BL/6 T cells) [%]
≤ 1000	≤ 1000	COC(C)(C)CCOc1ccc2cc(O)c(N3CC(=O)NS3(=O)=O)c(F)c2n1 [Compound 149]	207	> 10	–
≤ 1000	≤ 1000	O=C1CN(c2c(O)cc3ccc(OCCc4ccc(F)cc4)nc3c2F)S(=O)(=O)N1 [Compound 204, 5-(8-fluoro-2-(4-fluorophenethoxy)-6-hydroxyquinolin-7-yl)-1,2,5-thiadiazolidin-3-one 1,1-dioxide]	430	1 to 10	–
≤ 1000	≤ 1000	CC(C)CCCc1cc2c(F)c(N3CC(=O)NS3(=O)=O)c(O)cc2n(C)c1=O [Compound 190]	–	1 to 10	–
≤ 1000	≤ 1000	O=C1CN(c2c(O)cc3c(cc(NC4CCCC4)c(=O)n3C3CC3)c2F)S(=O)(=O)N1 [Compound 185]	–	–	181
≤ 1000	≤ 1000	CC(C)(C)CCOc1ccc2cc(O)c(N3CC(=O)NS3(=O)=O)cc2n1 [Compound 183]	162	< 1	–
≤ 1000	≤ 1000	O=C1CN(c2c(O)cc3ccc(OCC4CCCOC4)nc3c2F)S(=O)(=O)N1 (stereo not shown) [Compound 144]	251	> 10	–
≤ 1000	≤ 1000	CC(C)CCNc1cc2cc(N3CC(=O)NS3(=O)=O)c(O)cc2n(C)c1=O [Compound 120]	194	–	–
≤ 1000	≤ 1000	O=C1CN(c2c(O)cc3ccc(OCC4CCOC4)nc3c2F)S(=O)(=O)N1 (stereo not shown) [Compound 139]	226	> 10	–
≤ 1000	≤ 1000	N#CCCCOc1ccc2cc(O)c(N3CC(=O)NS3(=O)=O)c(F)c2n1 [Compound 155]	–	> 10	–
≤ 1000	≤ 1000	O=C1CN(c2c(O)cc3ccc(OCCC4CCCC4)nc3c2F)S(=O)(=O)N1 [Compound 158]	152	> 10	–
≤ 1000	≤ 1000	CC(C)CCNC(=O)c1cc2c(F)c(N3CC(=O)NS3(=O)=O)c(O)cc2s1 [Compound 130, 5-(1,1-dioxido-4-oxo-1,2,5-thiadiazolidin-2-yl)-4-fluoro-6-hydroxy-N-isopentylbenzo[b]thiophene-2-carboxamide]	–	> 10	–
≤ 1000	≤ 1000	CC(C)CCOc1cc2c(F)c(N3CC(=O)NS3(=O)=O)c(O)cc2n(C)c1=O [Compound 136, 5-(5-fluoro-7-hydroxy-3-(isopentyloxy)-1-methyl-2-oxo-1,2-dihydroquinolin-6-yl)-1,2,5-thiadiazolidin-3-one 1,1-dioxide]	–	–	131
≤ 1000	≤ 1000	CC(C)CCNc1cc2c(F)c(N3CC(=O)NS3(=O)=O)c(O)cc2n(C)c1=O [Compound 186]	–	> 10	–
≤ 1000	≤ 1000	CC(C)(C)CCOc1ccc2cc(O)c(N3CC(=O)NS3(=O)=O)c(F)c2n1 [Compound 150]	260	–	–
≤ 1000	≤ 1000	CC(C)CCNc1ccc2cc(O)c(N3CC(=O)NS3(=O)=O)cc2n1 [Compound 113, 5-(6-hydroxy-2-(isopentylamino)quinolin-7-yl)-1,2,5-thiadiazolidin-3-one 1,1-dioxide]	210	–	–
≤ 1000	≤ 1000	O=C1CN(c2c(O)cc3ccc(OCCc4ccccc4)nc3c2F)S(=O)(=O)N1 [Compound 151]	227	1 to 10	–
